Results on one substance are retold here after patent US7851471B2, “Compounds I” (AstraZeneca AB (PUBL), priority 2007, dated 2010).

In assay [1] the test system is JEG-3 cells (choriocarcinoma cell line). The note with it: Biol. Reprod. (2007) 76: 203-10; cited from earlier work.
For assay [2] the test system is unchanged. Description: Leptin assay in non-recombinant system: [3H]-thymidine incorporation / proliferation of JEG-3 cells. It is filed as cell-based. On the procedure:
In JEG-3 cells (choriocarcinoma cell line) leptin is able to stimulate proliferation up to 3 fold (Biol. Reprod. (2007) 76: 203-10). […] The radioactivity incorporated by the cells is an index of their proliferative activity and is measured in counts per minute (CPM) with a liquid scintillation beta counter.
This finding can be applied to test whether a compound is able to either reproduce the effect of leptin on cell proliferation (leptin receptor agonist mimetic) (i.e., a given compound will cause an increase in incorporated [^3H]-Thymidine by the cells) or to inhibit the effect of leptin (antagonistic effect) by preventing the leptin-mediated increase in [H]-thymidine incorporation.

Turning to “Leptin: a hormone synthesized in fat cells that is believed to act in the hypothalamus to reduce food intake and body weight”, the stimulation of proliferation entry in assay [1] is on record as “up to 3 fold”. Moreover, the “concentration giving maximal effect on [3H]-thymidine incorporation” value in assay [2] (FIG. 5) was determined as 100 nM. For the same substance, the EC50 in assay [2] (FIG. 5, read-out: concentration-dependent increase in [3H]-thymidine incorporation, EC50) amounted to 2.1 nM.
